Measured values from patent publication US4041168A, “Nitroimidazole derivative with antibacterial activity” (Gruppo Lepetit S.p.A., priority 1975, dated 1977).

What was measured:
[1] = in vivo activity against experimental infection in mice caused by Trichomonas vaginalis (ED50, Therapeutical Index); details: mouse, in vivo, po; ratio LD50/ED50, per os mice; read-out: Therapeutical Index (TI)
Method: (§1) This activity, expressed as an ED50 value, is moreover coupled with a very low toxicity, expressed as an LD50 value, which was determined substantially according to the method described by Lichtfield and Wilcoxon, Journ. Pharm. Exp. Ther., 96, 99, 1949. In representative experiments, the following results have been obtained:
(§2) which indicate that the compound of the invention is a very useful and promising anti-Trichomonas agent. This becomes even more evident if one considers its Therapeutical Index (TI). Said parameter, which is mathematically expressed by the following ratio LD50 /ED50 gives a reliable idea about the safety of a drug and, considering how it is calculated, it is clear that the higher the TI, the safer the drug is; a high value of the Therapeutical Index means in fact a low effective dose (ED50) in comparison with the lethal dose (LD50). […] As an example, the 5-isopropyl-1-methyl-2-nitroimidazole, described in U.S. Pat. No. 3,499,967 and therein mentioned as one of the most outstanding in vivo active 2-nitroimidazoles against Trichomonas vaginalis, has a Therapeutical Index of 102.
(§3) 1. In the present experiment there are compared the anti-Trichomonas in vivo activities and the Therapeutical Indexes (TI) of the compound of the invention (hereinafter referred to as compound A) and four 5-hydroxy alkyl-2-nitroimidazoles described or falling within prior art patents. In these four compounds the hydroxy group is bound to a primary or secondary carbon atom which not necessarily is linked to the imidazole nucleus.
(§4) 2. In the following set of experiments there are evaluated the variations of Therapeutical Index (positive or negative) which are observed when some 5-alkyl-2 -nitroimidazoles known from the prior art are compared with the corresponding 5-hydroxyalkyl-2-nitroimidazoles, including the new compound A. Obviously all of the compounds are tested for their in vivo activity against Trichomonas vaginalis. […] With reference to the hereinbelow reported table and the first four pair of compounds, the results clearly indicate that the variations of Therapeutical Index which are observed are slightly positive or even negative i.e., that the Therapeutical Index of the known 5-hydroxyalkyl-2-nitroimidazoles either is worse than or is substantially the same as that of the corresponding 5-alkyl compounds: this practically means that no appreciable therapeutical results have been obtained, and that, considering the last pair of substances i.e., compound K and compound A (the compound of the invention), an unrelevant or unfavorable variation of the Therapeutical Index would have to be expected as well. On the contrary, a dramatically favorable and unpredictable variation of this parameter is observed and, clearly, this effect is to be interpreted as a remarkable improvement of the therapeutical (anti-Trichomonas) properties:
(§5) 3. In the third experiment there are evaluated the effects on the Therapeutical Index of the substitution with two methyl groups of two hydrogen atoms of the methyl radical at the 5-position of compound F namely [drawing 17] in comparison with the effects on the same parameter caused by the substitution with two methyl groups of the two hydrogen atoms of the hydroxymethyl group of compound B, namely [drawing 18] The compounds are obviously tested for their anti-Trichomonas in vivo properties.

Trichomonas vaginalis = experiment: as above; details: for ED50: po; for ED50 / ED50 mg/kg per os mice: per os, mice, Trichomonas vaginalis infection; for in vivo anti-Trichomonas activity (in words): experimental infection in mice; for Therapeutical Index (comparison in words): mouse, in vivo
Method: as §1, §2, §3, §4, §5

[2] = toxicity (LD50) per os in mice, substantially according to Lichtfield and Wilcoxon; details: mouse, in vivo, po
Method: as §1, with “obtained: […]” for “obtained:”

[3] = usual in vitro antibacterial tests
Description: Though the compound of the present invention is formally embraced by the foregoing general formula, it is to be noted that in the cited Belgian Patent only concrete examples of 5-hydroxy lower alkyl substituents are reported, wherein the hydroxy lower alkyl groups are 2-hydroxyethyl or 2-hydroxypropyl, i.e. only primary or secondary alcohols are disclosed.

| Compound | selectivity ratio [1] | ED50 (Trichomonas vaginalis) [mg/kg] | LD50 [2] [mg/kg] | also measured |
| --- | --- | --- | --- | --- |
| CCCc1cnc([N+](=O)[O-])n1C [reference compound] | 21.6 | 26 | 560 | – |
| CC(C)c1cnc([N+](=O)[O-])n1C [K, 5-isopropyl-1-methyl-2-nitroimidazole, reference compound] | 102 | – | – | – |
| Cn1c(CCO)cnc1[N+](=O)[O-] | 43 | 35 | 1500 | – |
| CCc1cnc([N+](=O)[O-])n1C [reference compound] | 38 | 9.8 | 372 | – |
| COC(C)(C)c1cnc([N+](=O)[O-])n1C [Compound of formula V, 5-[(1-methoxy-1-methyl)ethyl]-1-methyl-2-nitroimidazole] | 160 | 2.18 | – | in vivo anti-Trichomonas activity (in words) (Trichomonas vaginalis): valuable degree of in vivo anti-Trichomonas activity; Therapeutical Index (comparison in words) (Trichomonas vaginalis): not so high as that of the compound of formula I; LD50 mg/kg per os mice [2]: 350 mg/kg |
| CC(CO)c1cnc([N+](=O)[O-])n1C (stereo not drawn) [drawing 6] | 38.8 | 20 | 776 | – |
| Cn1c(CO)cnc1[N+](=O)[O-] [Compound B, 5-hydroxymethyl-1-methyl-2-nitroimidazole, reference compound] | – | – | – | Therapeutical Index (comparison in words) (Trichomonas vaginalis): much lower than that of compound A |
| CC(C)c1cnc([N+](=O)[O-])n1C [drawing 13] | – | 2.6 | – | LD50 mg/kg per os mice [2]: 265 mg/kg |
| Cc1cnc([N+](=O)[O-])n1C | 23.4 | 10.5 | 246 | – |
| CC(O)Cc1cnc([N+](=O)[O-])n1C (stereo not drawn) [drawing 12] | – | – | – | ED50 mg/kg per os mice (Trichomonas vaginalis): 17 mg/kg; LD50 mg/kg per os mice [2]: 670 mg/kg |
| CC(CO)c1cnc([N+](=O)[O-])n1C (stereo not drawn) [drawing 14] | – | – | – | ED50 mg/kg per os mice (Trichomonas vaginalis): 20 mg/kg |
| Cn1c(C(C)(C)O)cnc1[N+](=O)[O-] [Compound A, 5-[(1-hydroxy-1-methyl)ethyl]-1-methyl-2-nitroimidazole] | 317 | 2.3 | 730 | in vivo anti-Trichomonas activity (in words) (Trichomonas vaginalis): far highest in vivo activity; in vivo anti-Trichomonas activity (in words) (Trichomonas vaginalis; listed as compound of the invention): outstanding in vivo activity; antibacterial properties in vitro (in words) [3]: very interesting antibacterial properties |
| Cn1c(CO)cnc1[N+](=O)[O-] [drawing 3] | 24.8 | 14.1 | 350 | – |
| CC(O)Cc1cnc([N+](=O)[O-])n1C (stereo not drawn) [drawing 5] | 39.4 | 17 | 670 | – |
